In brackets after ≈: the same amount, converted by molar mass. Read-outs that look alike come from different tables or passages of the source.
How the values were obtained:
Fusarium avenaceum [1] = test: mycelial growth inhibition on potato dextrose agar; format: cell-based; settings: in vitro; at the same concentrations as the dithiocarbamate (100 ppm)
Pestalotia guepinii [2] = test: mycelial growth inhibition on potato dextrose agar; format: cell-based; settings: for inhibition at 50 µg/mL: 264 h, 50 μg/mL, day 11, read-out: colonies inhibited; for EC50: read-out: EC50 (effective concentration that caused 50% inhibition of mycelial growth); for MIC: read-out: MIC (minimal inhibitory concentration)
Fusarium avenaceum [3] = test: mycelial growth inhibition on potato dextrose agar; format: cell-based; settings: for inhibition at 50 µg/mL / inhibition at 100 µg/mL: 672 h, day 28, read-out: inhibited fungal growth; for inhibition at 50 µg/mL: 50 μg/mL; for inhibition at 100 µg/mL: 100 μg/mL; for EC50: F. avenaceum, estimated, read-out: EC50 (effective concentration that caused 50% inhibition of mycelial growth); for inhibiting fungus: at all experimental concentrations; for inhibition at 10 µg/mL: read-out: inhibition of mycelial growth, CPT 10 μg/mL
Protocol: (§1) Alternaria alternata, Epicoccum nigrum, Pestalotia guepinii, Drechslera sp., and Fusarium avenaceum were isolated from infected leaves and roots of C. acuminata. The strains were cultured and maintained on potato dextrose agar (PDA) medium.
(§2) CPT, trifolin, and hyperoside (isolated from Camptotheca as above) were tested for their ability to inhibit these fungi, as compard with two classical fungicides, Bravo (active ingredient: chlorothalonil) and Maneb (active ingredient: manganous ethylenebis [dithiocarbamate]), as references. The concentrations of the conventional fungicides were those recommended by the manufacturers (Bravo: 10,000 μg/mL; Maneb: 3,000 μg/mL).
(§3) In addition to a negative control (0) and two fungicides as positive controls for each of the five isolated pathogens, seven levels of CPT were tested with each of the fungi and three levels of trifolin and hyperoside were tested with P. guepinii, Drechslera sp. and F. avenaceum, respectively (see FIG. 8).
(§4) Trifolin and hyperoside treatments were applied at concentrations of 50, 100, and 150 μg/mL, respectively. For all cultures, final concentrations were made in molten (50° C.) potato dextrose agar (Difco), and 10 mL aliquots were poured into Petri dishes (85 mm in diameter). Within 24 hours after pouring, each of the plates was inoculated with one of the five fungi. One 5×5 mm mycelial plug was cut from the actively growing front of a 2 week old colony, then placed with the inoculum side down in the center of each treatment plate. The cultures were incubated at 24° C. For all experiments, five replicate plates were inoculated for each treatment.
(§5) Mycelial growth on each plate was observed daily and recorded on a transparent film for the first two weeks, then recorded on the 16th, 20th, 23rd, and 28th days. Colony radii were measured along four vertical radial directions. The mean of the four measurements was calculated as the growth rate on each plate. Mean and standard error were calculated from the five replicates of each treatment. For each of the fungi, values of EC50 (effective concentration that caused 50% inhibition of mycelial growth) and MIC (the minimum inhibitory concentration) of each compound were estimated.

Drechslera sp. = test: mycelial growth inhibition on potato dextrose agar; format: cell-based; settings: for EC50: estimated; for inhibition at 50 µg/mL: 480 h, 50 μg/mL, day 20, read-out: colonies inhibited; for inhibiting fungus: at all experimental concentrations
Protocol: as §1, §2, §3, §4, §5

[4] = test system: F. oxysporum f.sp. lycopersici; settings: mycelial growth; cited from earlier work
Alternaria mali = settings: mycelial growth; cited from earlier work
F. oxysporum f. sp. lini = settings: 100 ppm (100 μg/mL); cited from earlier work
F. verticillioides = settings: cited from earlier work
Botrytis cinerea = settings: in vitro tests and TLC bioautography; Sridhar et al. (2003); cited from earlier work
Alternaria alternata = test: mycelial growth inhibition on potato dextrose agar; format: cell-based
Protocol: as §1, §2, §3, §4, §5

Pestalotia guepinii [5] = test: mycelial growth inhibition on potato dextrose agar; format: cell-based
Protocol: as §1, §2, §3, §4, §5

Epicoccum nigrum = test: mycelial growth inhibition on potato dextrose agar; format: cell-based
Protocol: as §1, §2, §3, §4, §5

[6] = Drechslera sp., read-out: EC50 (effective concentration that caused 50% inhibition of mycelial growth)
[7] = at relatively higher concentrations

## O=c1c(O[C@@H]2O[C@H](CO)[C@H](O)[C@H](O)[C@H]2O)c(-c2ccc(O)cc2)oc2cc(O)cc(O)c12 [trifolin, kaempferol-3-O-β-D-galactopyranoside]
Fusarium avenaceum [1]
  inhibited growth: 70%
Pestalotia guepinii [2]
  inhibition at 50 µg/mL: 53.4%
Pestalotia guepinii [2]; P. guepinii, estimated
  EC50: ~50 µg/mL (≈ 112 µM)
Pestalotia guepinii [2]; P. guepinii
  MIC: < 125 µg/mL
Fusarium avenaceum [3]; 150 μg/mL
  growth inhibition: totally controlled the fungus during the entire experiment
Fusarium avenaceum [3]; Fusarium avenaceum
  inhibition at 50 µg/mL: 35.8%
  inhibition at 100 µg/mL: 74.8%
  EC50: 50 to 100 µg/mL (≈ 112 to 223 µM)
Fusarium avenaceum [3]
  inhibiting fungus: highly effective
Drechslera sp.; 100 μg/mL, 28-day experiment
  growth inhibition: totally controlled the fungus
Drechslera sp.; 150 μg/mL
  growth inhibition: completely inhibited growth
Drechslera sp.; [6]
  EC50: < 50 µg/mL
Drechslera sp.; Drechslera
  inhibition at 50 µg/mL: 76.1%
Drechslera sp.
  inhibiting fungus: highly effective

## C/C=C\c1cc(OC)c(OC)cc1OC [β-Asarone]
[4]
  MIC: > 100 µg/mL
Alternaria mali
  MIC: > 100 µg/mL

## CCN(CC)C(=S)[S-].[Na+] [N,N-diethyldithiocarbamic acid sodium salt]
F. oxysporum f. sp. lini
  inhibit growth: 7-30%

## COc1cc([C@H]2OC[C@H]3[C@@H]2CO[C@H]3c2ccc(O)c(OC)c2)ccc1O (racemic) [(±) pinoresinol]
F. verticillioides
  MIC: 1,000 μg/mL

## COc1cc(C=O)ccc1O [Vanillin]
F. verticillioides
  MIC: 600 µg/mL (≈ 3940 µM)

## O=c1c(O[C@@H]2O[C@H](CO)[C@H](O)[C@H](O)[C@H]2O)c(-c2ccc(O)c(O)c2)oc2cc(O)cc(O)c12 [hyperoside, quercetin-3-O-β-D-galactopyranoside]
Fusarium avenaceum [1]
  inhibited growth: 70%
Pestalotia guepinii [2]
  inhibition at 50 µg/mL: 53.8%
Pestalotia guepinii [2]; P. guepinii, estimated
  EC50: ~50 µg/mL (≈ 108 µM)
Pestalotia guepinii [2]; P. guepinii
  MIC: < 125 µg/mL
Fusarium avenaceum [3]; 150 μg/mL
  growth inhibition: completely inhibited fungal growth during the first four weeks
Fusarium avenaceum [3]; Fusarium avenaceum
  inhibition at 50 µg/mL: 31.6%
  inhibition at 100 µg/mL: 72.6%
  EC50: 50 to 100 µg/mL (≈ 108 to 215 µM)
Fusarium avenaceum [3]
  inhibiting fungus: highly effective
Drechslera sp.; 100 μg/mL, 28-day experiment
  growth inhibition: little growth by day 28
Drechslera sp.; 150 μg/mL
  growth inhibition: completely inhibited growth
Drechslera sp.; [6]
  EC50: < 50 µg/mL
Drechslera sp.; Drechslera
  inhibition at 50 µg/mL: 74.3%
Drechslera sp.
  inhibiting fungus: highly effective

## CC(C)=CCC/C(C)=C/CO [geraniol]
Botrytis cinerea
  minimum concentration (MIC): 160 µg/mL

## CC[C@@]1(O)C(=O)OCc2c1cc1n(c2=O)Cc2cc3ccccc3nc2-1 [CPT, 4(S)-4-ethyl-4-hydroxy-1H-pyrano-(3′,4′:6,7) indolizino (1,2,-b) quinoline-3,14 (4H,12H)-dione]
Fusarium avenaceum [1]
  inhibited growth: 70%
Pestalotia guepinii [2]
  EC50: ~10 µg/mL (≈ 28.7 µM)
  MIC: 125 µg/mL (≈ 359 µM)
Fusarium avenaceum [3]; CPT 125 and 150 μg/mL
  growth inhibition: completely inhibited growth
Fusarium avenaceum [3]; Fusarium avenaceum, read-out: MIC (minimal inhibitory concentration; complete inhibition)
  MIC: 125 µg/mL (≈ 359 µM)
Fusarium avenaceum [3]; Fusarium avenaceum, read-out: inhibited the rate of mycelial growth, CPT 30 μg/mL
  inhibition at 30 µg/mL: > 60%
Fusarium avenaceum [3]; Fusarium avenaceum, first several days of the experiment
  inhibition at 10 µg/mL: 70 to 80%
Fusarium avenaceum [3]; Fusarium avenaceum, later stages
  inhibition at 10 µg/mL: ~40%
Fusarium avenaceum [3]
  inhibiting fungus: highly effective
Alternaria alternata; Alternaria alternata, read-out: EC50 (effective concentration that caused 50% inhibition of mycelial growth)
  EC50: < 25 µg/mL
Alternaria alternata; Alternaria alternata, A. alternata, read-out: MIC (minimal inhibitory concentration)
  MIC: 75 µg/mL (≈ 215 µM)
Alternaria alternata; Alternaria alternata, CPT 10 μg/mL, read-out: colonies inhibited
  inhibition at 10 µg/mL: 41 to 66%
Alternaria alternata; CPT 10 μg/mL, control 13 days
  days for mycelium to completely cover the agar surface: 23 days
Alternaria alternata; CPT 25 μg/mL
  day colonies started to grow: second day
Alternaria alternata; CPT 25 μg/mL, 28 days vs. 13 days for control
  colony expansion reduced: 215%
Alternaria alternata; CPT 25 μg/mL, control 13 days
  days to cover the agar surface: 28 days
Alternaria alternata; CPT 25 μg/mL, day 13
  colonies smaller than controls: 52.8%
Alternaria alternata; CPT 75 μg/mL and above
  control of fungal growth: totally controlled
Alternaria alternata; [7]
  suppressing growth: effective
Pestalotia guepinii [5]; CPT 10 μg/mL, 11th day
  reduced mycelial growth: 43.5%
Pestalotia guepinii [5]; CPT 10 μg/mL, control 11th day
  day colonies reached the petri dish margins: 20 days
Pestalotia guepinii [5]; CPT 125 μg/mL and above
  growth inhibition: totally inhibited growth
Epicoccum nigrum; CPT 10 μg/mL and 25 μg/mL, 28 days vs. 10 days for control
  delayed mycelial growth: 280%
Epicoccum nigrum; CPT 10 μg/mL and 25 μg/mL, control 10 days
  days to cover agar surface: 28 days
Epicoccum nigrum; CPT 10 μg/mL, day 10
  colonies smaller than controls: 65%
Epicoccum nigrum; CPT 25 μg/mL, day 15
  colony radii: 20 mm
Epicoccum nigrum; CPT 50 μg/mL
  day growth began: 8th day
Epicoccum nigrum; CPT 50 μg/mL, day 20
  colony radii: 8 mm
Epicoccum nigrum; CPT 75 μg/mL and higher
  growth inhibition: totally inhibited growth
Epicoccum nigrum; Epicoccum nigrum, read-out: EC50 (effective concentration that caused 50% inhibition of mycelial growth), E. nigrum, estimated
  EC50: ~10 µg/mL (≈ 28.7 µM)
Epicoccum nigrum; Epicoccum nigrum, CPT 50 μg/mL, read-out: inhibited growth
  inhibition at 50 µg/mL: > 90%
Epicoccum nigrum; Epicoccum nigrum, E. nigrum, read-out: MIC (minimal inhibitory concentration)
  MIC: 75 µg/mL (≈ 215 µM)
Epicoccum nigrum; [7]
  suppressing growth: effective
Drechslera sp.; CPT 100 μg/mL and higher
  growth inhibition: completely inhibited fungal growth
Drechslera sp.; CPT at all experimental levels (10-150 μg/mL) vs Bravo 10,000 μg/mL
  inhibition compared with Bravo: greater inhibition rates than Bravo
Drechslera sp.; Drechslera, read-out: EC50 (effective concentration that caused 50% inhibition of mycelial growth), Drechslera sp.
  EC50: ~10 µg/mL (≈ 28.7 µM)
Drechslera sp.; Drechslera, read-out: MIC (minimal inhibitory concentration)
  MIC: 100 µg/mL (≈ 287 µM)
Drechslera sp.
  inhibiting fungus: highly effective

## COc1cc(C=CC=O)ccc1O [4-hydroxy-3-methoxycinnamaldehyde]
F. verticillioides
  MIC: 400 µg/mL (≈ 2240 µM)
